Measurements from the NIST ThermoML archive (doi:10.1016/j.tca.2018.04.001).
Numbers after ± are expanded uncertainties.

Tests used:
[1] = Molar enthalpy of transition or fusion; conditions: DSC
[2] = DSC

## CCCCCCCCCCCCCCCCCCCCC [heneicosane]
[1]; Crystal 1
  Molar enthalpy of transition or fusion: 9.93 ± 1 kcal/mol
[1]; Crystal 2
  Molar enthalpy of transition or fusion: 3.42 ± 0.359 kcal/mol
[2]; Crystal 1
  Triple point temperature: 313.65 ± 1 K
[2]; Crystal 2
  Triple point temperature: 305.05 ± 1 K
